Patent US8476043B2, “Inhibitors for the soluble epoxide hydrolase” (The Regents of the University of California, priority 2004, dated 2013)

molecular target: T1, human sEH (Homo sapiens, UniProt P34913); assay: sEH inhibition, fluorescent assay with cyano(6-methoxy-naphthalen-2-yl)methyl trans-[(3-phenyloxiran-2-yl)methyl]carbonate as substrate; type: biochemical; conditions: not given
T1 construct: made in house
T1 sequence (P34913 1-555): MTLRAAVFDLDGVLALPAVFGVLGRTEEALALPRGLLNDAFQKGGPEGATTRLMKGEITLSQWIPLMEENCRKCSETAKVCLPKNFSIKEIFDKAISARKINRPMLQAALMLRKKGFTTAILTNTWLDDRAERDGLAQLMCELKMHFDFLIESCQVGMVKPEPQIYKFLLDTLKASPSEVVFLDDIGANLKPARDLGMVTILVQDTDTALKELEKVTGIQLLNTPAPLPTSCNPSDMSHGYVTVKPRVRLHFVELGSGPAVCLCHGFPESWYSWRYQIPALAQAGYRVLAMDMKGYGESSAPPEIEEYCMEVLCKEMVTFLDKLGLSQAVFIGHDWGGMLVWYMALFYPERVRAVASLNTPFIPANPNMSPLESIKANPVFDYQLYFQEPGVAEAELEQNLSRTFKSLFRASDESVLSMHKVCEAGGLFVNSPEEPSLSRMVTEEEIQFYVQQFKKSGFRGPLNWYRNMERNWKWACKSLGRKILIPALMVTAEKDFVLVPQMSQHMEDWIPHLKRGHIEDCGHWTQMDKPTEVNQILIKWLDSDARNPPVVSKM
Experimental: Recombinant mouse sEH and human sEH were produced in a baculovirus expression system and purified by affinity chromatography. […] Protein concentration was quantified by using the Pierce BCA assay using Fraction V bovine serum albumin as the calibrating standard.
Enzyme activity was measured by monitoring the appearance of 6-methoxy-2-naphthaldehyde. Assays were performed in triplicate. […] IC50 values were determined by regression of at least five datum points, with a minimum of two datum points in the linear region of the curve on either side of the IC50 values. The curve was generated from at least three separate runs, each in triplicate.

Row | Compound | IC50 [µM]
1 | O=C(NC1CCC(OC2CCCCC2)CC1)NC12CC3CC(CC(C3)C1)C2 (stereo not shown) [Compound 1097] | 0.01 ± 0.01

same assay, conditions: 792 vs. 687; 1001, 1002 and 798 vs. the sulfonylamides

Row | Compound | fold decrease in inhibition potency on human sEH [fold]
2 | CCNC(=O)CCCCCCCCCCCNC(=O)NC12CC3CC(CC(C3)C1)C2 [Compound 792, 1-(1-Adamantyl)-3-(11-ethylaminocarbonylundecyl)urea] | 1.5

same assay, conditions: Table 5; fluorescent-based assay, 0.96 nM human sEH, pH 7.0, [S] = 5 μM; read-out: Human sEH IC50

Row | Compound | IC50 [µM]
3 | CC(C)=CCCC(C)CCOC(=O)CCCNC(=O)NC12CC3CC(CC(C3)C1)C2 (stereo not shown) [Compound 798, 4-(3-Adamantan-1-yl-ureido) butyric Acid 3,7-Dimethyl-oct-6-enyl Ester] | 0.0076
4 | CCNC(=O)CCCCCCCCCCCNC(=O)NC12CC3CC(CC(C3)C1)C2 [Compound 792, 1-(1-Adamantyl)-3-(11-ethylaminocarbonylundecyl)urea] | 0.0043

same assay, conditions: Table 18b; fluorescent assay with cyano(6-methoxy-naphthalen-2-yl)methyl trans-[(3-phenyloxiran-2-yl)methyl]carbonate as substrate; mean ± SD; read-out: IC50

Row | Compound | IC50 [µM]
5 | O=C(Nc1cccc(OC(=O)c2ccccc2)c1)NC12CC3CC(CC(C3)C1)C2 [Compound 1222] | 0.01 ± 0.01
6 | CCN(CC)C(=O)OCc1cccc(-c2ccccc2)c1C [Compound 1464] | 7.19 ± 0.01
7 | CCOCCOCCOCCCCCCNC(=O)NC12CC3CC(CC(C3)C1)C2 [Compound 1130] | 0.01 ± 0.01
8 | O=C(O)Cc1ccc(NC(=O)NC23CC4CC(CC(C4)C2)C3)cc1 [Compound 1178] | 0.01 ± 0.01
9 | CCOC(=O)c1ccc(C(OC(=O)C2CCCC(NC(=O)NC34CC5CC(CC(C5)C3)C4)C2)c2ccccc2)cc1 (stereo not shown) [Compound 1066] | 0.01 ± 0.01
10 | O=C(NC1CCC(C(=O)O)CC1)NC12CC3CC(CC(C3)C1)C2 (stereo not shown) [Compound 1173] | 0.01 ± 0.01
11 | CCOC(=O)C(C)Oc1ccc(NC(=O)NC23CC4CC(CC(C4)C2)C3)cc1 (stereo not shown) [Compound 1186] | 0.01 ± 0.01
12 | O=C(O)CCc1ccc(NC(=O)NC23CC4CC(CC(C4)C2)C3)cc1 [Compound 1223] | 0.01 ± 0.01
13 | O=C(NCCCC(=O)OC(c1ccccc1)c1ccccc1)NC12CC3CC(CC(C3)C1)C2 [Compound 1164] | 0.01 ± 0.01
14 | O=C(NC1CCCC(C(=O)OC(c2ccccc2)c2ccccc2)C1)NC12CC3CC(CC(C3)C1)C2 (stereo not shown) [Compound 1437] | 0.01 ± 0.01
15 | CC(=O)c1ccc(NC(=O)NC23CC4CC(CC(C4)C2)C3)cc1 [Compound 1217] | 0.01 ± 0.01
16 | O=C(NCCCCCOCCCN1CCS(=O)(=O)CC1)NC12CC3CC(CC(C3)C1)C2 [Compound 1131] | 0.01 ± 0.01
17 | COCCCCCCCCNC(=O)NC12CC3CC(CC(C3)C1)C2 [Compound 1450] | 0.01 ± 0.01
18 | O=C(Nc1ccc(C(=O)O)cc1)NC12CC3CC(CC(C3)C1)C2 [Compound 1177] | 0.01 ± 0.01
19 | CC(Oc1ccc(NC(=O)NC23CC4CC(CC(C4)C2)C3)cc1)C(=O)O (stereo not shown) [Compound 1187] | 0.01 ± 0.01
20 | CC(C)(Oc1ccc(NC(=O)NC23CC4CC(CC(C4)C2)C3)cc1)C(=O)O [Compound 1442] | 0.15 ± 0.01
21 | O=C(Nc1ccc(OC(F)(F)C(=O)O)cc1)NC12CC3CC(CC(C3)C1)C2 [Compound 1444] | 0.01 ± 0.01
22 | O=C(NCCOCc1ccc2ccccc2c1)NCCOCc1ccc2ccccc2c1 [Compound 1117] | 1.12 ± 0.01
23 | CCOCCOCCOCCOC(=O)CCCCCCCCCCCNC(=O)NC12CC3CC(CC(C3)C1)C2 [Compound 1067] | 0.01 ± 0.01
24 | CCOC(=O)c1cccc(NC(=O)CC23CC4CC(CC(C4)C2)C3)c1 [Compound 1452] | 0.04 ± 0.01
25 | O=C(CC12CC3CC(CC(C3)C1)C2)NC12CC3CC(CC(O)(C3)C1)C2 [Compound 1064] | 0.04 ± 0.01
26 | O=C(CC12CC3CC(CC(C3)C1)C2)NCCCCCOCCOCCOCc1ccccc1 [Compound 1063-2] | 0.01 ± 0.01

Row | Compound | IC50 [µM]
27 | O=C(Nc1ccc(OCCN2CCOCC2)cc1)NC12CC3CC(CC(C3)C1)C2 [Compound 1197] | 0.01 ± 0.01
28 | O=C(NC12CC3CC(CC(C3)C1)C2)N[C@H]1CC[C@H](OC(=O)c2ccc([N+](=O)[O-])cc2)CC1 (relative stereo) [Compound 1076, trans-4-Nitro-benzoic acid 4-(3-tricyclo[3.3.1.13,7]decan-1-yl-ureido)-cyclohexyl ester] | 0.01 ± 0.01
29 | O=C(Nc1ccc(O)cc1)NC12CC3CC(CC(C3)C1)C2 [Compound 1183] | 0.02 ± 0.01
30 | O=C(Nc1ccc(Br)cc1)NC1CCC(Oc2ccc(F)cc2)CC1 (stereo not shown) [Compound 1516] | 0.01 ± 0.01
31 | O=C(NCCCCCOCCCCCN1CCS(=O)(=O)CC1)NC12CC3CC(CC(C3)C1)C2 [Compound 1031] | 0.01 ± 0.01
32 | O=C(O)CCCc1ccc(NC(=O)NC23CC4CC(CC(C4)C2)C3)cc1 [Compound 1224] | 0.01 ± 0.01
33 | O=C(Nc1ccccc1)NC1CCC(OCc2c(F)cccc2F)CC1 (stereo not shown) [Compound 1147] | 0.01 ± 0.01
34 | O=C(CCCCCCOCCCOCCCc1ccccc1)NC12CC3CC(CC(C3)C1)C2 [Compound 1023] | 0.07 ± 0.01
35 | O=C(NC1CCCC(C(=O)NCCOCCO)C1)NC12CC3CC(CC(C3)C1)C2 (stereo not shown) [Compound 1022] | 0.04 ± 0.01
36 | O=C(NC1CCC(Oc2ccc(C(F)(F)F)cn2)CC1)NC12CC3CC(CC(C3)C1)C2 (stereo not shown) [Compound 1513] | 0.05 ± 0.01
37 | CC(C)N(C(=O)Oc1cccc(-c2ccccc2)c1)C(C)C [Compound 1460] | 10.92 ± 0.01
38 | O=C(NC1CCCCC1)Oc1cccc(-c2ccccc2)c1 [Compound 1229] | 0.92 ± 0.01
39 | O=C(NC1CCC(O)CC1)C12CC3CC(CC(C3)C1)C2 (stereo not shown) [Compound 1142] | 0.01 ± 0.01
40 | O=C(O)CCc1cccc(NC(=O)NC23CC4CC(CC(C4)C2)C3)c1 [Compound 1226] | 0.01 ± 0.01
41 | O=C(Cc1ccc(NC(=O)NC23CC4CC(CC(C4)C2)C3)cc1)NC(C(=O)NCC(C(=O)O)c1c[nH]c2ccccc12)c1ccccc1 (stereo not shown) [Compound 1425] | 0.01 ± 0.01
42 | O=C(CCCCCCOCCCCc1ccccc1)NC12CC3CC(CC(C3)C1)C2 [Compound 1028] | 0.01 ± 0.01
43 | O=C(CCCCCNC(=O)NC12CC3CC(CC(C3)C1)C2)NC(C(=O)NC(C(=O)O)c1c[nH]c2ccccc12)c1ccccc1 (stereo not shown) [Compound 1084] | 0.01 ± 0.01
44 | CC(C)(Oc1ccc(NC(=O)NC23CC4CC(CC(C4)C2)C3)cc1)C(=O)OCc1ccccc1 [Compound 1441] | 0.01 ± 0.01
45 | Cc1c(COC(=O)N(C(C)C)C(C)C)cccc1-c1ccccc1 [Compound 1465] | 1.23 ± 0.01
46 | CCOC(=O)COc1ccc(NC(=O)NC23CC4CC(CC(C4)C2)C3)cc1 [Compound 1184] | 0.01 ± 0.01
47 | O=C(Nc1ccc(C(F)(F)F)cc1)NC1CCC(Oc2ccc(F)cc2)CC1 (stereo not shown) [Compound 1517] | 0.01 ± 0.01
48 | O=C(Nc1cccc(C(=O)c2ccccc2)c1)NC12CC3CC(CC(C3)C1)C2 [Compound 1218] | 0.01 ± 0.01

Row | Compound | IC50 [µM]
49 | O=C(Nc1cccc(C(=O)NCCN2CCOCC2)c1)NC12CC3CC(CC(C3)C1)C2 [Compound 1165] | 0.06 ± 0.01
50 | CC(=O)Oc1ccc(NC(=O)NC23CC4CC(CC(C4)C2)C3)cc1 [Compound 1220] | 0.01 ± 0.01
51 | O=C(Nc1cccc(C(=O)NCCN2CCCC2)c1)NC12CC3CC(CC(C3)C1)C2 [Compound 1198] | 0.01 ± 0.01
52 | O=C(Nc1ccc(OCCN2CCOCC2)cc1Cl)NC12CC3CC(CC(C3)C1)C2 [Compound 1448] | 0.01 ± 0.01
53 | O=C(Nc1cc(O)ccc1Cl)NC12CC3CC(CC(C3)C1)C2 [Compound 1189] | 0.02 ± 0.01
54 | CCOCCOCC(OC(=O)CCCNC(=O)NC12CC3CC(CC(C3)C1)C2)c1ccccc1 (stereo not shown) [Compound 1439] | 0.01 ± 0.01
55 | CC(=O)Oc1cccc(NC(=O)NC23CC4CC(CC(C4)C2)C3)c1 [Compound 1193] | 0.01 ± 0.01
56 | CCCCCNC(=O)NCCOCc1ccc2ccccc2c1 [Compound 1116] | 0.26 ± 0.01
57 | O=C(Nc1cccc(C(=O)Nc2ccc(N3CCOCC3)cc2)c1)NC12CC3CC(CC(C3)C1)C2 [Compound 1440] | 0.07 ± 0.01
58 | CCOCCOCCOCCCCCNC(=O)NC1C2CC3CC(C2)CC1C3 (stereo not shown) [Compound 1128] | 0.01 ± 0.01
59 | O=C(CC12CC3CC(CC(C3)C1)C2)Nc1cccc(C(=O)O)c1 [Compound 1453] | 0.03 ± 0.01
60 | O=C(NC1CCC(OCc2ccccc2F)CC1)NC12CC3CC(CC(C3)C1)C2 (stereo not shown) [Compound 1150] | 0.01 ± 0.01
61 | O=C(Nc1cccc(C(=O)OC(c2ccccc2)c2ccccc2)c1)NC12CC3CC(CC(C3)C1)C2 [Compound 1182] | 0.01 ± 0.01
62 | O=C(NC1CCCCCC1)NC1CCC(Oc2ccc(F)cc2)CC1 (stereo not shown) [Compound 1515] | 0.01 ± 0.01
63 | O=C(O)Cc1cccc(NC(=O)NC23CC4CC(CC(C4)C2)C3)c1 [Compound 1225] | 0.02 ± 0.01
64 | O=C(O)COc1ccc(NC(=O)NC23CC4CC(CC(C4)C2)C3)cc1 [Compound 1185] | 0.14 ± 0.01
65 | COCOc1cc(F)c(COC2CCC(NC(=O)NC34CC5CC(CC(C5)C3)C4)CC2)c(F)c1 (stereo not shown) [Compound 1105] | 0.01 ± 0.01
66 | COc1ccc(NC(=O)NC23CC4CC(CC(C4)C2)C3)cc1O [Compound 1191] | 0.01 ± 0.01
67 | O=C(CC12CC3CC(CC(C3)C1)C2)NC1CCC(O)CC1 (stereo not shown) [Compound 1063-1] | 0.05 ± 0.01
68 | CCOC(=O)C(F)(F)Oc1ccc(NC(=O)NC23CC4CC(CC(C4)C2)C3)cc1 [Compound 1443] | 0.01 ± 0.01
69 | O=C(Nc1ccccc1)NC1CCC(OCc2c(F)cccc2F)CC1 (stereo not shown) [Compound 1148] | 0.01 ± 0.01
70 | O=C(NC1CCC(OCc2ccccc2C(F)(F)F)CC1)NC12CC3CC(CC(C3)C1)C2 (stereo not shown) [Compound 1143] | 0.01 ± 0.01
